Entries after “also recorded” stand apart in the source; their conditions may differ.
Experiments:
CDV = assay type: cell-based, canine distemper virus
NiV N = NiV N (Nipah virus, UniProt Q9IK92); assay type: cell-based
[1] = test system: NiV (Malaysian isolate UMMC1); assay type: cell-based, Nipah virus
[2] = test system: NiV (Malaysian isolate UMMC1); assay type: cell-based, Nipah virus; remark: listed apart in the source

Chain of NiV N (Q9IK92 whole entry, looked up): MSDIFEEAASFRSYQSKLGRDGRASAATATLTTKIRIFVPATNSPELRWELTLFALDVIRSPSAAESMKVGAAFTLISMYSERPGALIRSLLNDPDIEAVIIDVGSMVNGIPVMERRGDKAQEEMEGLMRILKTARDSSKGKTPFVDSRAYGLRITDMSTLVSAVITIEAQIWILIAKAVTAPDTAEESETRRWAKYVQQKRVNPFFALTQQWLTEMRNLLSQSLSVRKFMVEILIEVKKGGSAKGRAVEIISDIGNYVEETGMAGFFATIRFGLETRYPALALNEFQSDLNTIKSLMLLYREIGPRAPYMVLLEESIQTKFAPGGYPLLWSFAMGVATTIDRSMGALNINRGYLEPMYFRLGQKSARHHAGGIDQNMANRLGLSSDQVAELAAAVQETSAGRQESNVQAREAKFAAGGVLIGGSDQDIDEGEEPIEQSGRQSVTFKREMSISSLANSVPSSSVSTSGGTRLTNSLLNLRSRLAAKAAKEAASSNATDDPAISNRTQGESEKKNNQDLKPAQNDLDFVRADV

| Sequence | dose dependence of inhibition of CDV replication (CDV) | colocalization with N in the cell (NiV N) | maintenance of N in a soluble form (NiV N) | inhibition of NiV viral growth (virus titer in culture supernatant) [1] | inhibition of NiV viral growth (viral titer in culture supernatant) [2] | syncytia formation in NiV-infected cells [2] | inhibition of CDV viral growth (virus titer in culture supernatant) (CDV) |
| --- | --- | --- | --- | --- | --- | --- | --- |
| MAEEQAYHVSKGLECLKALRENPPDIEEIQEVSSLRDQTC [P40-CDV] | dose-dependant | – | – | – | – | – | – |
| MDKLELVNDGLNIIDFIQKNQKEIQKTYGRSSIQQPSIKD [P40] | dose-dependant | colocalization of N with P40 | sufficient to maintain N in a soluble form | inhibit viral growth | significantly inhibits viral growth in a dose-dependent manner; also recorded: inhibited viral replication; also recorded: able to inhibit the replication of Nipah virus | abolishes syncytia formation | inhibit viral growth |

From patent US10266569B2 (priority 2014, dated 2019)
